{
  "source": "patent US20100104546A1",
  "about": "“MODULATORS OF ANTIGEN-DEPENDENT T CELL PROLIFERATION” (CHILDREN, YOUTH AND WOMEN'S HEALTH SERVICE, priority 2007, published 2010)",
  "tested_on": "splenocytes",
  "assay": "Ex-vivo antigen (SRBC)-dependent splenocyte proliferation after administration to SRBC-immunized mice (thymidine incorporation)",
  "format": "in vivo, Balb/c mice",
  "settings": "ip in mouse serum, between 10-80 mg/kg",
  "description": "Mice were immunized with SRBC for 5 days. β-oxa-21:3n-3 was delivered in DMSO and injected intraperitoneally at the indicated doses. After 2 h spleens were removed and single cell suspensions were prepared. The splenocytes were cultured for 3 days in the presence (□), or absence (▪) of SRBC. Thymidine incorporation for final 16 hours of culture was determined. The data is expressed as mean±SEM of 3 separate experiments each in triplicate.\nMice were immunized with SRBC for 5 days. Then β-oxa-21:3n-3 dissolved in syngeneic mouse serum and injected intraperitoneally (A), intravenously (B) or gavaged/orally (C) at the indicated concentrations. After 2 h spleens were removed, single cell suspensions prepared and the splenocytes cultured for 3 days in the presence (▪), or absence (□) of SRBC. Thymidine incorporation for final 16 hours of culture was determined. The data is presented as the mean±SEM of 3 separate experiments separate experiments, each in quintuplets.\nMice were immunized with SRBC. After 5 days they were given β-thia-21:3n-3 at the indicated doses i.p. After 2 hours the spleens were removed and processed into single cell suppressions. These were then cultured in the presence (□), or absence of (▪) of SRBC to assess the proliferation. The results are expressed as mean±SEM of 3 experiments. (B) Effect of β-oxa-21:3n-3 on tetanus toxoid (TT)-induced ex vivo lymphocyte responses. Mice were immunized with TT subcutaneously and after 7 days were given β-oxa-21:3n-3 in mouse serum, intraperitoneally. Two hours later the spleen removed, single cell suspension prepared and examined for lymphoproliferation responses to TT in 5 day cultures. The results are expressed as mean±SEM of 3 experiments.\n6-7 weeks old Balb/c mice were injected subcutaneously with 100 μl of 10% sheep red blood cells (IMVS, Inc., Adelaide, Australia) After 5 days 100 ul of β-oxa-21:3n-3 at indicated amounts were injected intraperitoneally, intravenously or gavaged orally. In another experimental set up mice were given β-tha-21:3n-3 i.p. In a third approach mice were infected subcutaneously with 100 μl of Tetanus Toxoid (2,500 Lf/ml). Then 7 days later were given β-oxa-21:3n-3. At indicated time points mice were sacrificed and spleens were removed. Single cell suspensions were prepared and white blood cells (WBC) were enriched by passing through Ficoll-Paque Plus (GE Healthcare). Cells were washed with RPMI-1640 containing 10% fetal bovine serum, 10 mM Hepes, antibiotics and glutamine (RPMI-10) and counted using an automated Cell-Dyne 3500R (Abbott, Inc. MA) instrument. Cells were viable (>98%) as judged by trypan blue exclusion. (β-oxa-21:3n-3)- or vehicle-treated mouse samples (200,000/well) were mixed either with SRBC (600,000/well) with 100 μl of Tetanus toxoid (50 Lf/ml) or phytohaemaglutinin (PHA) (2 μg/ml) or with PHA plus phorbol myristate acetate (PMA) (10 ng/ml) or with PMA plus calcium ionophore A23187 ([…]). Cells were cultured in 96 well U bottom plates (Nunc, Inc. Denmark) for 3 days (except for TT −5 days) at 37° C. under humidified air containing 5% CO2. At some instances 50 μl of supernatants were transferred to a new plate and frozen immediately at −70° C. to be used for cytokine measurements. Thymidine (50 μl, 1 μCi/well) was added at final 16 hours of culture. Cells were harvested and thymidine incorporation was determined using a beta scintillation counter.",
  "data": [
    {"substance": "β-thia-21:3n-3", "values": [
      {"measurement": "lymphoproliferative response to SRBC", "result": "inhibition of the lymphoproliferative response in a dose dependent manner"}
    ]}
  ]
}
